This note sets out measurements from patent US20250262201A1, “COMPOUNDS AND METHODS USEFUL FOR STABILIZING PHENYLALANINE HYDROXYLASE MUTATIONS” (Agios Pharmaceuticals, Inc., priority 2022, published 2025).

By AC50 is commonly meant the midpoint of the concentration-response curve, whichever way the signal moves.

Molecules are shown by their SMILES.

This assay concerns the target T1, human PAH with the R408W mutation (Homo sapiens, UniProt P00439, R408W).
T1 construct: expressed in transfected cells
T1 sequence (P00439 1-452 R408W): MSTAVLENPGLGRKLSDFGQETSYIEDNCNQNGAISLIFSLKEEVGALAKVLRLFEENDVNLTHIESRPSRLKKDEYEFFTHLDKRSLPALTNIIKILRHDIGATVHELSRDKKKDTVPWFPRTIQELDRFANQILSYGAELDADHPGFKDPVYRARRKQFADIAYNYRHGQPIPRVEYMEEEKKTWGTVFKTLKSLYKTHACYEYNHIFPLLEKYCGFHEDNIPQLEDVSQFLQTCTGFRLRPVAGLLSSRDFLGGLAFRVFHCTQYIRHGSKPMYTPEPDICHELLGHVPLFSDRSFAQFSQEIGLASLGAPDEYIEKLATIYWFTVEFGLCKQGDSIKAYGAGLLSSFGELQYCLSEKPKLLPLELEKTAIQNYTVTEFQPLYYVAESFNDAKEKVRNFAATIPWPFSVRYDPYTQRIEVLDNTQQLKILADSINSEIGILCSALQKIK
The assay can be described thus: Cell Based Phenylalanine Flux Assay. As to conditions: A375 cells expressing human R408W PAH; 24 hrs compound incubation; 13C-Tyrosine by LC-MS; average where tested multiple times; read-out: AC50.
Procedure: Compounds were resuspended in DMSO, and 2-fold serial dilutions were performed to generate a 10-point dose curve. Compounds were added to plated cells in a total volume of 100 pal, and a final DMSO concentration of 0.5%. Each compound was tested in duplicate. Following compound addition, cells were placed in a 5% CO2, 37° C. tissue culture incubator for 24 hrs. After the incubation period, 20 μM sepiapterin and 800 μM 13C9,15N-Phenylalanine were added. After 4 hours, cell media was removed. An aliquot of 10 μl of cell media was combined with 200 μl of extraction buffer (80% acetonitrile/20% H2O) for each well. Determination of ^13C-Tyrosine concentration was assessed by liquid chromatography mass spectrometry.
`O=C(c1nnc(-c2ccn(C(F)F)n2)o1)N1CCc2[nH]cnc2C1c1ccc2ccccc2n1` (stereo in doubt) [Example 95, (S)-(5-(1-(difluoromethyl)-1H-pyrazol-3-yl)-1,3,4-oxadiazol-2-yl)(4-(quinolin-2-yl)-6,7-dihydro-1H-imidazo[4,5-c]pyridin-5(4H)-yl)methanone]: the concentration at half-maximal activity (AC50) lay in the range of 1 to 5 µM.
The same measure for `CC(C)(O)c1nc(Br)c(C(=O)N2CCc3[nH]cnc3C2c2ccc3ccccc3n2)o1` (stereo in doubt) [Example 97, (R)-(4-bromo-2-(2-hydroxypropan-2-yl)oxazol-5-yl)(4-(quinolin-2-yl)-6,7-dihydro-1H-imidazo[4,5-c]pyridin-5(4H)-yl)methanone]: less than 0.5 µM.
Take `CC(C)(O)c1nc(Br)c(C(=O)N2CCc3[nH]cnc3C2c2ccc3ccccc3n2)o1` (stereo in doubt) [Example 98, (S)-(4-bromo-2-(2-hydroxypropan-2-yl)oxazol-5-yl)(4-(quinolin-2-yl)-6,7-dihydro-1H-imidazo[4,5-c]pyridin-5(4H)-yl)methanone]: the AC50 was in the range of 1 to 5 µM.
`Cc1nc([C@H](C)O)oc1C(=O)N1CCc2[nH]cnc2C1c1ccc2ccccc2n1` (stereo in doubt) [Example 99, (2-((S)-1-hydroxyethyl)-4-methyloxazol-5-yl)((R)-4-(quinolin-2-yl)-6,7-dihydro-1H-imidazo[4,5-c]pyridin-5(4H)-yl)methanone]: the AC50 was in the range of 1 to 5 µM.
The same measure for `Cc1nc(C2(O)CCC2)oc1C(=O)N1CCc2[nH]cnc2C1c1ccc2ccccc2n1` (stereo in doubt) [Example 101, (R)-(2-(1-hydroxycyclobutyl)-4-methyloxazol-5-yl)(4-(quinolin-2-yl)-6,7-dihydro-1H-imidazo[4,5-c]pyridin-5(4H)-yl)methanone]: 0.5 to 1 µM.
In the case of `Cc1nc(C2(O)CCC2)oc1C(=O)N1CCc2[nH]cnc2C1c1ccc2ccccc2n1` (stereo in doubt) [Example 102, (S)-(2-(1-hydroxycyclobutyl)-4-methyloxazol-5-yl)(4-(quinolin-2-yl)-6,7-dihydro-1H-imidazo[4,5-c]pyridin-5(4H)-yl)methanone] it was more than 5 µM; in that of `Cc1ccc(-c2nnc(C(=O)N3CCc4[nH]cnc4C3c3ccc4ccccc4n3)o2)nc1` (stereo in doubt) [Example 103, (S)-(5-(5-methylpyridin-2-yl)-1,3,4-oxadiazol-2-yl)(4-(quinolin-2-yl)-6,7-dihydro-1H-imidazo[4,5-c]pyridin-5(4H)-yl)methanone], 1 to 5 µM.
In the case of `Cc1ccc(-c2nnc(C(=O)N3CCc4[nH]cnc4C3c3ccc4ccccc4n3)o2)nc1` (stereo in doubt) [Example 104, (R)-(5-(5-methylpyridin-2-yl)-1,3,4-oxadiazol-2-yl)(4-(quinolin-2-yl)-6,7-dihydro-1H-imidazo[4,5-c]pyridin-5(4H)-yl)methanone] it was less than 0.5 µM.
On to `CC(C)(F)c1nnc(C(=O)N2CCc3[nH]cnc3C2c2ccc3ccccc3n2)o1` (stereo in doubt) [Example 105, (R)-(5-(2-fluoropropan-2-yl)-1,3,4-oxadiazol-2-yl)(4-(quinolin-2-yl)-6,7-dihydro-1H-imidazo[4,5-c]pyridin-5(4H)-yl)methanone], for which the AC50 fell in the range of 0.5 to 1 µM.
The same measure for `CC(C)(F)c1nnc(C(=O)N2CCc3[nH]cnc3C2c2ccc3ccccc3n2)o1` (stereo in doubt) [Example 106, (S)-(5-(2-fluoropropan-2-yl)-1,3,4-oxadiazol-2-yl)(4-(quinolin-2-yl)-6,7-dihydro-1H-imidazo[4,5-c]pyridin-5(4H)-yl)methanone]: 1 to 5 µM; for `O=C(c1nnc(-c2cc(C(F)(F)F)ccn2)o1)N1CCc2[nH]cnc2C1c1ccc2ccccc2n1` (stereo in doubt) [Example 107, (R)-(4-(quinolin-2-yl)-6,7-dihydro-1H-imidazo[4,5-c]pyridin-5(4H)-yl)(5-(4-(trifluoromethyl)pyridin-2-yl)-1,3,4-oxadiazol-2-yl)methanone]: 0.5 to 1 µM; for `O=C(c1nnc(-c2cc(C(F)(F)F)ccn2)o1)N1CCc2[nH]cnc2C1c1ccc2ccccc2n1` (stereo in doubt) [Example 108, (S)-(4-(quinolin-2-yl)-6,7-dihydro-1H-imidazo[4,5-c]pyridin-5(4H)-yl)(5-(4-(trifluoromethyl)pyridin-2-yl)-1,3,4-oxadiazol-2-yl)methanone]: 1 to 5 µM.
In the case of `O=C(c1cn(-c2ccccn2)nc1Cl)N1CCc2[nH]cnc2C1c1ccc2ccccc2n1` (stereo in doubt) [Example 109, (R)-(3-chloro-1-(pyridin-2-yl)-1H-pyrazol-4-yl)(4-(quinolin-2-yl)-6,7-dihydro-1H-imidazo[4,5-c]pyridin-5(4H)-yl)methanone] it was 1 to 5 µM; in that of `O=C(c1cn(-c2ccccn2)nc1Cl)N1CCc2[nH]cnc2C1c1ccc2ccccc2n1` (stereo in doubt) [Example 110, (S)-(3-chloro-1-(pyridin-2-yl)-1H-pyrazol-4-yl)(4-(quinolin-2-yl)-6,7-dihydro-1H-imidazo[4,5-c]pyridin-5(4H)-yl)methanone], 1 to 5 µM.
On to `Cc1nc([C@@H](C)O)oc1C(=O)N1CCc2[nH]cnc2C1c1ccc2ccccc2n1` (stereo in doubt) [Example 111, (2-((R)-1-hydroxyethyl)-4-methyloxazol-5-yl)((R)-4-(quinolin-2-yl)-6,7-dihydro-1H-imidazo[4,5-c]pyridin-5(4H)-yl)methanone], for which the concentration at half-maximal activity (AC50) lay in the range of 0.5 to 1 µM.
In the case of `CC(C)(O)c1nc(Cl)c(C(=O)N2CCc3[nH]cnc3C2c2ccc3ccccc3n2)o1` (stereo in doubt) [Example 113, (R)-(4-chloro-2-(2-hydroxypropan-2-yl)oxazol-5-yl)(4-(quinolin-2-yl)-6,7-dihydro-1H-imidazo[4,5-c]pyridin-5(4H)-yl)methanone] it was less than 0.5 µM; in that of `CC(C)(O)c1nc(Cl)c(C(=O)N2CCc3[nH]cnc3C2c2ccc3ccccc3n2)o1` (stereo in doubt) [Example 114, (S)-(4-chloro-2-(2-hydroxypropan-2-yl)oxazol-5-yl)(4-(quinolin-2-yl)-6,7-dihydro-1H-imidazo[4,5-c]pyridin-5(4H)-yl)methanone], more than 5 µM.
Regarding `O=C(c1nnc(-c2cc[nH]n2)o1)N1CCc2[nH]cnc2C1c1ccc2ccccc2n1` (stereo in doubt) [Example 115, (R)-(5-(1H-pyrazol-3-yl)-1,3,4-oxadiazol-2-yl)(4-(quinolin-2-yl)-6,7-dihydro-1H-imidazo[4,5-c]pyridin-5(4H)-yl)methanone], the AC50 is less than 0.5 µM.
As for `O=C(c1nnc(-c2cc[nH]n2)o1)N1CCc2[nH]cnc2C1c1ccc2ccccc2n1` (stereo in doubt) [Example 116, (S)-(5-(1H-pyrazol-3-yl)-1,3,4-oxadiazol-2-yl)(4-(quinolin-2-yl)-6,7-dihydro-1H-imidazo[4,5-c]pyridin-5(4H)-yl)methanone], the AC50 lay in the range of 1 to 5 µM.
The same measure for `Cc1nc(C(C)(C)C#N)oc1C(=O)N1CCc2[nH]cnc2C1c1ccc2ccccc2n1` (stereo in doubt) [Example 117, (S)-2-methyl-2-(4-methyl-5-(4-(quinolin-2-yl)-4,5,6,7-tetrahydro-1H-imidazo[4,5-c]pyridine-5-carbonyl)oxazol-2-yl)propanenitrile]: 1 to 5 µM.
